Where “and” joins values, the source holds several entries; their conditions need not be identical. Identical values can stand only once.
Legend:
[1] = biological target: Glycogen synthase kinase-3 alpha (Homo sapiens, UniProt P49840); assay: TR-FRET Assay
How it was run: (§1)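 TR-FRET readout: streptavidin-d2 (40 nM in added detection mix) plus Tb-anti-pSer641 Ab (2 nM in mix). Steps were 30 min compound preincubation, kinase reaction, then EDTA stop.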

[2] = biological target: Glycogen synthase kinase-3 beta (Homo sapiens, UniProt P49841); assay: TR-FRET Assay
Chain of Glycogen synthase kinase-3 beta (P49841 whole entry): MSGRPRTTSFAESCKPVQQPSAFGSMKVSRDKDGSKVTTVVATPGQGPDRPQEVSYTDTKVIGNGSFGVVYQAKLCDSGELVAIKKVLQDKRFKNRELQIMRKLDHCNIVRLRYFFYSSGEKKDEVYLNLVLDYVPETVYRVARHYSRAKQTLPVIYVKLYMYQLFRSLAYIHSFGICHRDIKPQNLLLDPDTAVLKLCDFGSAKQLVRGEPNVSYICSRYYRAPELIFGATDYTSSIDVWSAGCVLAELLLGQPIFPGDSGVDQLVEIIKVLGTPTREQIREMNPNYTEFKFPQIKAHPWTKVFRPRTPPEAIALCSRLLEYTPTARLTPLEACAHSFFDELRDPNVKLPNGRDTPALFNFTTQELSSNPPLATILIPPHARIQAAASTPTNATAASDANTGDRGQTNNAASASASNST
How it was run: as §1

Chain of Glycogen synthase kinase-3 alpha (P49840 whole entry): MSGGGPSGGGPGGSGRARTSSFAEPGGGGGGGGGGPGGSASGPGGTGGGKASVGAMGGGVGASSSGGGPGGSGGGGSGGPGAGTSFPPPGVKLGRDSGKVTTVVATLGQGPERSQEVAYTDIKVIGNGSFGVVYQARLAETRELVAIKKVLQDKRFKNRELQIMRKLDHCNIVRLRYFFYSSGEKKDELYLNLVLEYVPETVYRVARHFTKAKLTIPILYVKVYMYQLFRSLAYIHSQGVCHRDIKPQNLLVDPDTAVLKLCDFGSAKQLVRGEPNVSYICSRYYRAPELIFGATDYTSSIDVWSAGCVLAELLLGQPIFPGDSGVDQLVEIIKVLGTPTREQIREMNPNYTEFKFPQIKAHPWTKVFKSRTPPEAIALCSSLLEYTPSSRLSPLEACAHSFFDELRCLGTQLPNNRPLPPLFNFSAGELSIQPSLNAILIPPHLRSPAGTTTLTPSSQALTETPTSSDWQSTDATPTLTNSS

IC50 [1]	IC50 [2]	Compound
< 100 nM	< 100 nM and 1000 to 5000 nM	Cc1cccc(S(=O)(=O)N2CC[C@]3(C2)C2=C(N=NC2)NC2=C3C(=O)CC(C)(C)C2)c1 [US20250313563, Compound 951864]
100 to 1000 nM	100 to 1000 nM	CC[C@]1(c2cccc(-c3ccnc(C)c3)c2)C2=C(CC(C)(C)NC2=O)NC2N=NC(C(F)F)=C21 (some centres not stated) [US20250313563, Compound 950162]
< 100 nM	< 100 nM	CC[C@@]1(c2cccc(N(C)c3ncccn3)c2)C2=CN=NC2NC2=C1C(=O)NC(C)(C)C2 (some centres not stated) [US20250313563, Compound 947826]
100 to 1000 nM	1000 to 5000 nM	Cc1ccc(C(=O)N2CC3(C2)C[C@@]2(CO3)C3=C(N=NC3)NC3=C2C(=O)CC(C)(C)C3)cc1C [US20250313563, Compound 948039]
100 to 1000 nM	100 to 1000 nM	C[C@@H]1C[C@@]2(CCN1S(C)(=O)=O)C1=C(N=NC1)NC1=C2C(=O)CC(C)(C)C1 [US20250313563, Compound 918315]
< 100 nM	< 100 nM	CC1(C)CC(=O)C2=C(C1)NC1=C(CN=N1)C21CCN(S(=O)(=O)c2cnn3c2CCCC3)CC1 [US20250313563, Compound 947474]
< 100 nM	< 100 nM	CCC1(c2cccc(S(=O)(=O)C3COC3)c2)C2=CN=NC2NC2=C1C(=O)CC(C)(C)C2 (configuration not stated) [US20250313563, Compound 944017]
100 to 1000 nM	1000 to 5000 nM	CCC1(c2ccccc2)C2=C(N=NC2)NC2=C1C(=O)C(C)(C)SC2 (configuration not stated) [US20250313563, Compound 862028]
< 100 nM	< 100 nM and 100 to 1000 nM	CCC1(c2cccc(N3CCCC3)c2)C2=C(CC(C)(C)NC2=O)NC2N=NC(C(F)(F)F)=C21 (configuration not stated) [US20250313563, Compound 947860]
< 100 nM and 100 to 1000 nM	100 to 1000 nM and > 5000 nM	CC[C@]1(c2cccc(-c3ccnc(OC)c3)c2)C2=CN=NC2NC2=C1C(=O)CC(C)(C)C2 (some centres not stated) [US20250313563, Compound 911988]
100 to 1000 nM	100 to 1000 nM	CC1(C)CC(=O)C2=C(C1)NC1=C(CN=N1)C21COC2(CCC2)C1 (configuration not stated) [US20250313563, Compound 911973]
> 5000 nM	> 5000 nM	CC[C@]1(c2cccc(-c3cnn(-c4ccccc4)c3F)c2)C2=CN=NC2NC2=C1C(=O)NC(C)(C)C2 (some centres not stated) [US20250313563, Compound 949519]
< 100 nM	< 100 nM	CCC1(c2cccc(C(F)(F)F)c2)C2=CN=NC2NC2=C1C(=O)CC1(CCCC1)C2 (configuration not stated) [US20250313563, Compound 790617]
> 5000 nM	> 5000 nM	CN1CCCC2(CC1)C1=C(N=NC1)NC1=C2C(=O)CC(C)(C)C1 (configuration not stated) [US20250313563, Compound 893313]
< 100 nM	100 to 1000 nM	Cc1cc([C@H]2CC[C@@]3(CC2)C2=C(N=NC2)NC2=C3C(=O)CC(C)(C)C2)ccn1 [US20250313563, Compound 948416]
< 100 nM	100 to 1000 nM	CCC1(c2cccc(C(F)(F)F)c2)C2=CN=NC2NC2=C1C(=O)NC(C)(C)C2F (configuration not stated) [US20250313563, Compound 819622]
< 100 nM	100 to 1000 nM	CCC1(c2cccc(Cl)c2)C2=C(CC(C)(C)CC2=O)NC2N=NC(C)=C21 (configuration not stated) [US20250313563, Compound 789336]
< 100 nM and 100 to 1000 nM	< 100 nM and 100 to 1000 nM	CC1(C)CC(=O)C2=C(C1)NC1=C(CN=N1)C21CCN(S(=O)(=O)C2CC2)CC1 [US20250313563, Compound 901470]
< 100 nM	< 100 nM	CC1(C)CC(=O)C2=C(C1)NC1N=NC(Br)=C1[C@]21CCc2c(F)cccc21 (some centres not stated) [US20250313563, Compound 806939]
< 100 nM	100 to 1000 nM	Cc1cccc(C2(C)C3=C(N=NC3)NC3=C2C(=O)CC(C)(C)C3)c1 (configuration not stated) [US20250313563, Compound 785736]
< 100 nM	100 to 1000 nM	CC1(C)CC(=O)C2=C(C1)NC1N=NC=C1C21CCN(S(=O)(=O)c2cnc3n2CCC3)CC1 (configuration not stated) [US20250313563, Compound 947467]
< 100 nM	< 100 nM	CCC1(c2cccc(-c3ccncc3F)c2)C2=C(CC(C)(C)NC2=O)NC2N=NC(C(F)(F)F)=C21 (configuration not stated) [US20250313563, Compound 947866]
< 100 nM	< 100 nM	CC1(C)CC(=O)C2=C(C1)NC1=C(CN=N1)C21CN(S(=O)(=O)c2ccc(F)cc2)C1 [US20250313563, Compound 917144]
1000 to 5000 nM	> 5000 nM	CC(=O)N1CC2(C1)C1=C(N=NC1)NC1=C2C(=O)CC(C)(C)C1 [US20250313563, Compound 893314]
100 to 1000 nM	1000 to 5000 nM	CC1(C)CC(=O)C2=C(C1)NC1=C(CN=N1)[C@]21COC2(CN(S(C)(=O)=O)C2)C1 [US20250313563, Compound 926823]
> 5000 nM	> 5000 nM	CC[C@]1(c2cccc(C3=C4CC=CC(Cl)=C4N=CC3)c2)C2=CN=NC2NC2=C1C(=O)NC(C)(C)C2 (some centres not stated) [US20250313563, Compound 948650]

IC50 [1]	IC50 [2]	Compound
< 100 nM	100 to 1000 nM	CCC1(c2cccc(C)c2)C2=CN=NC2NC2=C1C(=O)CC(C)(C)C2 (configuration not stated) [US20250313563, Compound 785738]
< 100 nM and 100 to 1000 nM	< 100 nM and 100 to 1000 nM	CC[C@@]1(c2cccc(N3CCCCC3)c2)C2=C(CC(C)(C)CC2=O)NC2N=NC(C)=C21 (some centres not stated) [US20250313563, Compound 884116]
< 100 nM	100 to 1000 nM	CCC1(c2cccc(C(F)(F)F)c2)C2=C(N=NC2)NC2=C1C(=O)N(C)C2(C)C (configuration not stated) [US20250313563, Compound 913198]
< 100 nM	< 100 nM	CCN(C(C)=O)c1cccc([C@@]2(CC)C3=CN=NC3NC3=C2C(=O)CC(C)(C)C3)c1 (some centres not stated) [US20250313563, Compound 909214]
< 100 nM	< 100 nM	CC[C@@]1(c2cccc(-c3ccncc3F)c2)C2=C(CC(C)(C)NC2=O)NC2N=NC(C)=C21 (some centres not stated) [US20250313563, Compound 947821]
< 100 nM	< 100 nM	CCc1ncc(S(=O)(=O)N2CCC3(CC2)C2=C(N=NC2)NC2=C3C(=O)CC(C)(C)C2)s1 [US20250313563, Compound 947252]
< 100 nM	100 to 1000 nM	CC1(C)CC(=O)C2=C(C1)NC1=C(CN=N1)C21CCN(S(=O)(=O)c2cnccc2C(F)(F)F)CC1 [US20250313563, Compound 947463]
< 100 nM	< 100 nM	CC[C@@]1(c2cccc(-c3c(C)nn(C)c3C)c2)C2=C(CC(C)(C)NC2=O)NC2N=NC(C(F)(F)F)=C21 (some centres not stated) [US20250313563, Compound 948421]
100 to 1000 nM	1000 to 5000 nM	O=C1CC(c2ccccc2)CC2=C1C1(CCOCC1)C1=C(N=NC1)N2 (configuration not stated) [US20250313563, Compound 893309]
< 100 nM	100 to 1000 nM	Cc1ccc(S(=O)(=O)N2CCC3(CC2)C2=C(N=NC2)NC2=C3C(=O)CC(C)(C)C2)cc1 [US20250313563, Compound 947459]
1000 to 5000 nM	> 5000 nM	CC[C@]1(c2cccc(-c3cnn(C)c3C)c2)C2=CN=NC2NC2=C1C(=O)NC(C)(C)C2 (some centres not stated) [US20250313563, Compound 945617]
> 5000 nM	> 5000 nM	CC[C@@]1(c2cccc(C(F)(F)F)c2)C2=CN=NC2NC2=C1C(=O)NC[C@H]2C (some centres not stated) [US20250313563, Compound 945385]
1000 to 5000 nM	> 5000 nM	CC[C@]1(c2cccc(-c3ccnn3C)c2)C2=CN=NC2NC2=C1C(=O)N[C@]1(CCCOC1)C2 (some centres not stated) [US20250313563, Compound 948365]
< 100 nM	100 to 1000 nM	CCC1(c2cccc(C(F)(F)F)c2)C2=CN=NC2NC2=C1C(=O)N(C)C(C)(C)C2 (configuration not stated) [US20250313563, Compound 823130]
< 100 nM	< 100 nM	CC1(C)CC(=O)C2=C(C1)NC1=C(CN=N1)[C@]21COC2(CN(C(=O)C(C)(F)F)C2)C1 [US20250313563, Compound 947838]
< 100 nM	100 to 1000 nM	CCC1(c2cccc(-c3cnn4c3CCC4)c2)C2=CN=NC2NC2=C1C(=O)CC(C)(C)C2 (configuration not stated) [US20250313563, Compound 947494]
> 5000 nM	> 5000 nM	Cn1cc(CN2CC3(C2)C2=C(N=NC2)NC2=C3C(=O)CC(C)(C)C2)cn1 [US20250313563, Compound 929439]
< 100 nM	100 to 1000 nM	CCC1(c2cccc(C3=CN=NC3)c2)C2=CN=NC2NC2=C1C(=O)NC(C)(C)C2 (configuration not stated) [US20250313563, Compound 944022]
< 100 nM	100 to 1000 nM	CCc1cnccc1-c1cccc([C@@]2(CC)C3=CN=NC3NC3=C2C(=O)NC(C)(C)C3)c1 (some centres not stated) [US20250313563, Compound 948639]
100 to 1000 nM	> 5000 nM	CC[C@@]1(c2cccc(N(C)c3ncccn3)c2)C2=CN=NC2NC2=C1C(=O)NC(C)(C)C2 (some centres not stated) [US20250313563, Compound 949179]
< 100 nM and 100 to 1000 nM	< 100 nM and 1000 to 5000 nM	CC[C@]1(c2cccc(-c3ccncc3C(F)(F)F)c2)C2=C(N=NC2)NC2=C1C(=O)C(C)(C)C2 [US20250313563, Compound 952759]
< 100 nM	< 100 nM	CCC1(c2cccc(-c3cncn3C(C)C)c2)C2=CN=NC2NC2=C1C(=O)CC(C)(C)C2 (configuration not stated) [US20250313563, Compound 944026]
100 to 1000 nM	1000 to 5000 nM	CC[C@]1(c2cccc(C(F)(F)F)c2)C2=C(N=NC2)NC2=C1C(=O)N[C@H]2C [US20250313563, Compound 945379]
< 100 nM	< 100 nM	CC1(C)CC(=O)C2=C(C1)NC1=C(CN=N1)C21CCN(S(=O)(=O)c2cccc3ncccc23)CC1 [US20250313563, Compound 947469]
> 5000 nM	100 to 1000 nM	C[S@@+]([O-])c1cccc([C@]2(C)C3=C(CC(C)(C)CC3=O)NC3=C2C(CC(C)(C)C)N=N3)c1 (some centres not stated) [US20250313563, Compound 126191B:]

Reference: BindingDB's records for patent US20250313563 (The Broad Institute, 2025)
